Source: patent US20150105252A1, “SUBSTITUTED PYRAZOLES AS HERBICIDES” (E I DU PONT DE NEMOURS AND COMPANY, priority 2013, published 2015)

Key:
[1] = test system: soybean; experiment: Test C postemergence; format: in vivo, Glycine max; settings: postemergence; for Soybean plant response rating: 62 g ai/ha, scale 0 to 100
Description: (§1) Seeds of plant species selected from blackgrass (Alopecurus myosuroides), ryegrass, Italian (Italian ryegrass, Lolium multiflorum), wheat (winter wheat, Triticum aestivum), galium (catchweed bedstraw, Galium aparine), corn (Zea mays), crabgrass, large (large crabgrass, Digitaria sanguinalis), foxtail, giant (giant foxtail, Setaria faberii), johnsongrass (Sorghum halepense), lambsquarters (Chenopodium album), morningglory (Ipomoea coccinea), nutsedge, yellow (yellow nutsedge, Cyperus esculentus), pigweed (redroot pigweed, Amaranthus retroflexus), ragweed (common ragweed, Ambrosia elation), soybean (Glycine max), barnyardgrass (Echinochloa crus-galli), oilseed rape (Brassica napus), waterhemp (common waterhemp, Amaranthus rudis), oat, wild (wild oat, Avena fatua), kochia (Kochia scoparia), Surinam grass (Brachiaria decumbens), foxtail, green (green foxtail, Setaria viridis), goosegrass (Eleusine indica), bromegrass, downy (downy bromegrass, Bromus tectorum), nightshade (eastern black nightshade, Solanum ptycanthum), cocklebur (common cocklebur, Xanthium strumarium), cupgrass, woolly (woolly cupgrass, Eriochloa villosa), bermudagrass (Cynodon dactylon), sunflower, (common oilseed sunflower, Helianthus annuus), Russian thistle (Salsola kali), and velvetleaf (Abutilon theophrasti) were planted into a blend of loam soil and sand and treated preemergence with test chemicals formulated in a non-phytotoxic solvent mixture which included a surfactant.
(§2) At the same time, plants selected from these crop and weed species and also chickweed (common chickweed, Stellaria media), canarygrass (littleseed canarygrass, Phalaris minor), and deadnettle (henbit deadnettle, Lamium amplexicaule), were planted in pots containing Redi-Earth® planting medium (Scotts Company, 14111 Scottslawn Road, Marysville, Ohio 43041) comprising spaghnum peat moss, vermiculite, wetting agent and starter nutrients and treated with postemergence applications of test chemicals formulated in the same manner. Plants ranged in height from 2 to 18 cm (1- to 4-leaf stage) for postemergence treatments. Treated plants and controls were maintained in a greenhouse for 13 to 15 days, after which time all species were compared to controls and visually evaluated. Plant response ratings, summarized in Table C, are based on a scale of 0 to 100 where 0 is no effect and 100 is complete control. A dash (-) response means no test result.

[2] = test system: corn; experiment: Test A preemergence; format: in vivo, Zea mays; settings: Preemergence, 1000 g ai/ha; 0 to 100 scale, 0 no effect, 100 complete control
Outline: (§3)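 Ratings express plant response from 0 (no effect) to 100 (complete control), judged visually against untreated controls after approximately 10 days in the greenhouse. Preemergence applications were made as directed soil sprays onto seeded loam–sand mix, and postemergence applications onto 2–10 cm plants at one- to two-leaf stage.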

[3] = test system: lambsquarters; experiment: Test C postemergence; format: in vivo, Chenopodium album; settings: for Lambsquarters plant response rating: Postemergence, 31 g ai/ha, scale 0 to 100; for Plant response rating, Lambsquarters: postemergence
Description: as §1, §2

[4] = test system: pigweed; experiment: Test C postemergence; format: in vivo, Amaranthus retroflexus; settings: for Pigweed plant response rating: Postemergence, 31 g ai/ha, scale 0 to 100; for Plant response rating, Pigweed: postemergence
Description: as §1, §2

[5] = test system: morningglory; experiment: Test A preemergence; format: in vivo, Ipomoea spp.; settings: Preemergence, 1000 g ai/ha; 0 to 100 scale, 0 no effect, 100 complete control
Outline: as §3

[6] = test system: pigweed; experiment: Test A postemergence; format: in vivo, Amaranthus retroflexus; settings: Postemergence, 1000 g ai/ha; visual rating after approx. 10 days, 0 to 100 scale (0 no effect, 100 complete control)
Outline: as §3

[7] = test system: ryegrass, Italian; experiment: Test C postemergence; format: in vivo, Lolium multiflorum; settings: postemergence
Description: as §1, §2

[8] = test system: crabgrass, large; experiment: Test A postemergence; format: in vivo, Digitaria sanguinalis; settings: Postemergence, 1000 g ai/ha; visual rating after approx. 10 days, 0 to 100 scale (0 no effect, 100 complete control)
Outline: as §3

[9] = test system: oat, wild; experiment: Test C postemergence; format: in vivo, Avena fatua; settings: for Oat, Wild plant response rating: Postemergence, 31 g ai/ha, scale 0 to 100; for Plant response rating, Oat, Wild: postemergence
Description: as §1, §2

[10] = 250 g ai/ha, scale 0 to 100 (0 no effect, 100 complete control)
[11] = 125 g ai/ha, scale 0 to 100, 0 no effect, 100 complete control
[12] = 62 g ai/ha, scale 0 to 100, 0 no effect, 100 complete control

Row | SMILES | Soybean plant response rating [1] | Plant response rating, Soybean [1, 10] | Plant response rating, Soybean [1, 11] | Corn plant response rating [2] | Lambsquarters plant response rating [3] | Plant response rating, Lambsquarters [3, 10] | Plant response rating, Lambsquarters [3, 12] | Plant response rating, Lambsquarters [3, 11] | Pigweed plant response rating [4] | Plant response rating, Pigweed [4, 10] | Plant response rating, Pigweed [4, 12] | Plant response rating, Pigweed [4, 11] | Morningglory plant response rating [5] | Pigweed plant response rating [6] | Plant response rating, Ryegrass, Italian [7, 10] | Plant response rating, Ryegrass, Italian [7, 12] | Plant response rating, Ryegrass, Italian [7, 11] | Crabgrass, Large plant response rating [8] | Oat, Wild plant response rating [9] | Plant response rating, Oat, Wild [9, 10] | other results
1 | CCc1cc(C(=O)NCC(F)(F)F)nn1Cc1cccc(OC(F)(F)F)c1 [Compound 20] | 45 | 75 | 60 | 20 | 60 | 75 | 60 | 65 | 60 | 80 | 75 | 75 | 70 | 100 | 25 | 10 | 15 | 80 | 15 | 20 | Plant response rating, Oat, Wild [9, 12]: 15; Plant response rating, Oat, Wild [9, 11]: 20
2 | CCCNC(=O)c1cc(CC)n(Cc2cccc(OC(F)(F)F)c2)n1 [Compound 27] | 65 | 75 | 70 | 30 | 50 | 65 | 50 | 50 | 40 | 50 | 40 | 40 | 90 | 70 | 15 | 5 | 10 | 80 | 10 | 15 | Plant response rating, Oat, Wild [9, 12]: 10; Plant response rating, Oat, Wild [9, 11]: 15
